From patent EP4678629A1, “IONIZABLE LIPID MOLECULE, PREPARATION METHOD THEREFOR AND USE THEREOF” (Maxirna (Shanghai) Pharmaceutical Co., Ltd., priority 2023, dated 2024)

How the values were obtained:
[1] = Size and polydispersity index (PDI) of the lipid nanoparticle by dynamic light scattering; format: physicochemical; conditions: LNP encapsulating eGFP mRNA, ionizable lipid/DOPE/cholesterol/DMG-PEG2000 50/10/48.25/1.25 mol%, N/P 12; for Particle size: in nm (unit assumed)
Summary of the method: (§1)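 LNPs were made by microfluidic mixing of ionizable lipid/DOPE/cholesterol/DMG-PEG2000 (50/10/48.25/1.25 mol%) in ethanol with eGFP mRNA in 20 mM citrate pH 6.1, N/P 12, then ultrafiltered into DPBS and 0.2 µm filtered. Size and PDI by DLS at 173° backscatter; encapsulation by Ribogreen.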

[2] = In vitro transfection of cells with eGFP-mRNA lipid nanoparticle (LNP preparation), fluorescence imaging and flow cytometry; format: cell-based, mouse; conditions: mouse, dc2.4 cells, 200 ng of mRNA per well, after 24 hours; read-out: Cell viability, %
Summary of the method: (§2)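 Mouse bone marrow-derived DC2.4 dendritic cells seeded at 2 × 10^5 cells/well in DMEM with 10% FBS, transfected with eGFP-mRNA LNPs the next day at 37 °C, 5% CO2. After 24 hours, viability, eGFP-positive rate and mean fluorescence intensity read by fluorescence imaging and flow cytometry.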

DC2.4 cells = assay: as above; format: cell-based, mouse; conditions: eGFP positivity rate, DC2.4 cells, 200 ng of mRNA per well, after 24 hours
Summary of the method: as §2

[3] = Encapsulation efficiency of the lipid nanoparticle (eGFP mRNA) by Ribogreen method; format: physicochemical; conditions: LNP encapsulating eGFP mRNA, ionizable lipid/DOPE/cholesterol/DMG-PEG2000 50/10/48.25/1.25 mol%, N/P 12
Summary of the method: as §1

SMILES	PDI [1]	Particle size [1]	Encapsulation rate, % [3] [%]	viability at 24 h [2] [%]	Positive rate, % (DC2.4 cells) [%]
CCCCCCCCCCCOC(=O)CCCCN(CCCO)CCCN(CCCCC(=O)OCCCCCCCCCCC)CCCCC(=O)OCCCCCCCCCCC [Example 42, Diundecyl 5,5'-((3-((3-hydroxypropyl)(5-oxo-5-(undecyloxy)pentyl)amino)propyl)azadiyl)dipentanoate]	0.11	98.73	98.13	94.1	96.69
CCCCCCCCCCCOC(=O)CCCCN(CCCCO)CCCN(CCCCC(=O)OCCCCCCCCCCC)CCCCC(=O)OCCCCCCCCCCC [Example 43, Diundecyl 5,5'-((3-((4-hydroxybutyl)(5-oxo-5-(undecyloxy)pentyl)amino)propyl)azahexyl)dipentanoate]	0.14	–	87.08	88.2	97.48
CCCCCCCCCCCCOC(=O)CCCCCN(CCO)CCCN(CCCCCC(=O)OCCCCCCCCCCCC)CCCCCC(=O)OCCCCCCCCCCCC [Example 44, Didodecyl 6,6'-((3-((6-(dodecoxy)-6-oxohexyl)(2-hydroxyethyl)amino)propyl)azahexyl)dihexanoate]	0.20	–	99.38	91.9	94.2
CCCCCCCCCCCCOC(=O)CCCCCN(CCCO)CCCN(CCCCCC(=O)OCCCCCCCCCCCC)CCCCCC(=O)OCCCCCCCCCCCC [Example 45, Didodecyl 6,6'-((3-((6-(dodecoxy)-6-oxohexyl)(3-hydroxypropyl)amino)propyl)azahexyl)dihexanoate]	0.20	84.66	99.60	95	95.29
CCCCCCCCCCCCOC(=O)CCCCCN(CCCCO)CCCN(CCCCCC(=O)OCCCCCCCCCCCC)CCCCCC(=O)OCCCCCCCCCCCC [Example 46, Didodecyl 6,6'-((3-((6-(dodecyloxy)-6-oxohexyl)(4-hydroxybutyl)amino)propyl)azanediyl)dihexanoate]	0.22	72.75	99.86	97.4	96.64
CCCCCCCCCCCCOC(=O)CCCCCCN(CCCO)CCCN(CCCCCCC(=O)OCCCCCCCCCCCC)CCCCCCC(=O)OCCCCCCCCCCCC [Example 48, Didodecyl 7,7'-((3-((7-(dodecyloxy)-7-oxoheptyl)(3-hydroxypropyl)amino)propyl)azanediyl)diheptanoate]	0.16	76.18	99.52	94	97.26
CCCCCCCCCCCCOC(=O)CCCCCCN(CCCCO)CCCN(CCCCCCC(=O)OCCCCCCCCCCCC)CCCCCCC(=O)OCCCCCCCCCCCC [Example 49, Didodecyl 7,7'-((3-((7-(dodecyloxy)-7-oxoheptyl)(4-hydroxybutyl)amino)propyl)azanediyl)diheptanoate]	0.15	74.58	99.79	91.6	97.38
CCCCCCCCCCCCOC(=O)CCCCCCCN(CCCCO)CCCN(CCCCCCCC(=O)OCCCCCCCCCCCC)CCCCCCCC(=O)OCCCCCCCCCCCC [Example 52, Didodecyl 8,8'-((3-((8-(dodecyloxy)-8-oxooctyl)(4-hydroxybutyl)amino)propyl)azanediyl)dioctanoate]	0.17	69.63	99.18	82.9	85.37
CCCCCCCCCCCCCCOC(=O)CCCCCCN(CCCO)CCCN(CCCCCCC(=O)OCCCCCCCCCCCCCC)CCCCCCC(=O)OCCCCCCCCCCCCCC [Example 57, Ditetradecyl 7,7'-((3-((3-hydroxypropyl)(7-oxo-7-(tetradecyloxy)heptyl)amino)propyl)azanediyl)diheptanoate]	0.17	68.32	99.36	76.9	97.36

More lines, main results first:

PDI [1]	Particle size [1]	Encapsulation rate, % [3] [%]	SMILES	viability at 24 h [2] [%]	Positive rate, % (DC2.4 cells) [%]
0.26	83.85	99.77	CCCCCCCCCCCCOC(=O)CCCCCCN(CCO)CCCN(CCCCCCC(=O)OCCCCCCCCCCCC)CCCCCCC(=O)OCCCCCCCCCCCC [Example 47, Didodecyl 7,7'-((3-((7-(dodecyloxy)-7-oxoheptyl)(2-hydroxyethyl)amino)propyl)azanediyl)diheptanoate]	88.5	97.39
0.20	76.74	99.63	CCCCCCCCCCCCOC(=O)CCCCCCCN(CCO)CCCN(CCCCCCCC(=O)OCCCCCCCCCCCC)CCCCCCCC(=O)OCCCCCCCCCCCC [Example 50, Didodecyl 8,8'-((3-((8-(dodecyloxy)-8-oxooctyl)(2-hydroxyethyl)amino)propyl)azanediyl)dioctanoate]	90.4	99.74
0.18	75.07	99.28	CCCCCCCCCCCCOC(=O)CCCCCCCN(CCCO)CCCN(CCCCCCCC(=O)OCCCCCCCCCCCC)CCCCCCCC(=O)OCCCCCCCCCCCC [Example 51, Didodecyl 8,8'-((3-((8-(dodecyloxy)-8-oxooctyl)(3-hydroxypropyl)amino)propyl)azanediyl)dioctanoate]	92	99.64
0.09	91.34	97.67	CCCCCCCCCCCCCCOC(=O)CCCCCN(CCO)CCCN(CCCCCC(=O)OCCCCCCCCCCCCCC)CCCCCC(=O)OCCCCCCCCCCCCCC [Example 53, Ditetradecyl 6,6'-((3-((2-hydroxyethyl)(6-oxo-6-(tetradecyloxy)hexyl)amino)propyl)azanediyl)dihexanoate]	68.6	86.07
0.14	72.45	98.91	CCCCCCCCCCCCCCOC(=O)CCCCCN(CCCO)CCCN(CCCCCC(=O)OCCCCCCCCCCCCCC)CCCCCC(=O)OCCCCCCCCCCCCCC [Example 54, Ditetradecyl 6,6'-((3-((3-hydroxypropyl)(6-oxo-6-(tetradecyloxy)hexyl)amino)propyl)azanediyl)dihexanoate]	75.9	93.13
0.10	71.95	98.32	CCCCCCCCCCCCCCOC(=O)CCCCCN(CCCCO)CCCN(CCCCCC(=O)OCCCCCCCCCCCCCC)CCCCCC(=O)OCCCCCCCCCCCCCC [Example 55, Ditetradecyl 6,6'-((3-((4-hydroxybutyl)(6-oxo-6-(tetradecyloxy)hexyl)amino)propyl)azanediyl)dihexanoate]	86.6	92.64
0.14	64.31	99.68	CCCCCCCCCCCCCCOC(=O)CCCCCCN(CCO)CCCN(CCCCCCC(=O)OCCCCCCCCCCCCCC)CCCCCCC(=O)OCCCCCCCCCCCCCC [Example 56, Ditetradecyl 7,7'-((3-((2-hydroxyethyl)(7-oxo-7-(tetradecyloxy)heptyl)amino)propyl)azanediyl)diheptanoate]	80.5	93.64
